According to US9840508B2, “N-acyl-(3-substituted)-(8-methyl)-5,6-dihydro-[1,2,4]triazolo[4,3-a] pyrazines as selective NK-3 receptor antagonists, pharmaceutical composition, methods for use in NK-3 receptor-mediated disorders” (EUROSCREEN SA, priority 2013, dated 2017):
Where two headings read alike, the source gives them in different places.

Columns and labels:
human NK-2 receptor = human NK-2 receptor (Homo sapiens (Human), UniProt P21452); assay: Selectivity binding assay, human NK-2 ([125I]-Neurokinin A); conditions: CHO cell membranes; 0.1 nM [125I]-Neurokinin A; read-out: hNK-2 (Ki)
Chain of human NK-2 receptor (P21452 whole entry): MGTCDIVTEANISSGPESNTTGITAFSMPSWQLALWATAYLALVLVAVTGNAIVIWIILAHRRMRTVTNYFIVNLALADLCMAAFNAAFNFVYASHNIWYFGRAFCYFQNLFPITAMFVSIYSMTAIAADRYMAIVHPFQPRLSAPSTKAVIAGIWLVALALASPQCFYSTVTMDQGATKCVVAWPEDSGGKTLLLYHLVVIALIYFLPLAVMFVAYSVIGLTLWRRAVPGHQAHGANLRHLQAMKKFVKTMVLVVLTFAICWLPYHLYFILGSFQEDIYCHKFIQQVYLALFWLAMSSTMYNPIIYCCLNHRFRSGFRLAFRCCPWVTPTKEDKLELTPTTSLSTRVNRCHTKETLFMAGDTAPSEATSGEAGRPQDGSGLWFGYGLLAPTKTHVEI
Procedure: (§1) Selectivity of the compounds of the invention was determined over the other human NK receptors, namely NK-1 and NK-2 receptors.
The affinity of compounds of the invention for the NK-2 receptor was evaluated in CHO recombinant cells which express the human NK-2 receptor. Membrane suspensions were prepared from these cells. The following radioligand [^125I]-Neurokinin A (PerkinElmer Cat#NEX252) was used in this assay. Binding assays were performed in a 25 mM HEPES/1 mM CaCl2/5 mM MgCl2/0.5% BSA/10 μg/ml saponin, at pH 7.4. Binding assays consisted of 25 μl of membrane suspension (approximately 3.75 μg of protein/well in a 96 well plate), 50 μl of compound or reference ligand (Neurokinin A) at increasing concentrations (diluted in assay buffer) and 0.1 nM [^125I]-Neurokinin A. The plate was incubated 60 min at 25° C. in a water bath and then filtered over GF/C filters (Perkin Elmer, 6005174, presoaked in assay buffer without saponine for 2 h at room temperature) with a Filtration unit (Perkin Elmer). The radioactivity retained on the filters was measured by using the TopCount-NXT reader (Packard). Competition curves were obtained for compounds of the invention and the concentrations of compounds which displaced 50% of bound radioligand (IC50) were determined and then apparent inhibition constant Ki values were calculated by the following equation: Ki=IC50/(1+[L]/KD) where [L] is the concentration of free radioligand and KD is its dissociation constant at the receptor, derived from saturation binding experiments (Cheng and Prusoff, 1973).

human NK-3 receptor [1] = target: T1, human NK-3 receptor (Homo sapiens (Human), UniProt P29371); assay: Aequorin functional assay with human NK-3 receptor (antagonist testing); type: cell-based; conditions: CHO cells expressing human NK-3 receptor; agonist NKA at EC80 (3 nM); read-out: Functional assay: Aequorin assay with human NK-3 receptor hNK-3 - AEQ (antagonist IC50)
T1 sequence (P29371 whole entry): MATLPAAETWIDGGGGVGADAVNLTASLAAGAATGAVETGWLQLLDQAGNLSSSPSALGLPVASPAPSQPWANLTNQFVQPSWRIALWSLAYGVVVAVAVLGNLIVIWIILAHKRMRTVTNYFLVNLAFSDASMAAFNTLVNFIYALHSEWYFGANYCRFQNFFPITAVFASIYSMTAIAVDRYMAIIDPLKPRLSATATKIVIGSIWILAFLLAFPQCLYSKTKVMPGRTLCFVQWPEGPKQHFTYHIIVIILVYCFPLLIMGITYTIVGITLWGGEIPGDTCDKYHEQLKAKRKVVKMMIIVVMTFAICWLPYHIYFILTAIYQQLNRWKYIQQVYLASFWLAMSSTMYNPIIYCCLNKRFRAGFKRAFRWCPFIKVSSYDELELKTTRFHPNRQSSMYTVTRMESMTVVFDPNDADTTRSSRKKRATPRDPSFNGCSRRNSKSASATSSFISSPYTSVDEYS
Procedure: Aequorin Assay with Human NK-3 Receptor
Changes in intracellular calcium levels are a recognized indicator of G protein-coupled receptor activity. The efficacy of compounds of the invention to inhibit NKA-mediated NK-3 receptor activation was assessed by an in vitro Aequorin functional assay. Chinese Hamster Ovary recombinant cells expressing the human NK-3 receptor and a construct that encodes the photoproteinapoaequorin were used for this assay. In the presence of the cofactor coelenterazine, apoaequorin emits a measurable luminescence that is proportional to the amount of intracellular (cytoplasmic) free calcium.
The antagonist activity of compounds of the invention is measured following pre-incubation (3 minutes) of the compound (at various concentrations) with the cells, followed by addition of the reference agonist (NKA) at a final concentration equivalent to the EC80 (3 nM) and recording of emitted light (FDSS 6000 Hamamatsu) over the subsequent 90-second period. The intensity of the emitted light is integrated using the reader software. Compound antagonist activity is measured based on the concentration-dependent inhibition of the luminescence response to the addition of Neurokinin A.
The IC50 values shown in Table 2 indicate that compounds of the invention are potent NK-3 antagonist compounds.

plasma protein = assay: Determination of plasma protein binding (rapid equilibrium dialysis); type: in vitro ADME; conditions: 4 hours at 37° C.
Text: Determination of Plasma Protein Binding
The pharmacokinetic and pharmacodynamic properties of chemicals/drugs are largely a function of the reversible binding of chemicals to plasma or serum proteins. Generally, only the unbound or “free fraction” of a drug is available for diffusion or transport across cell membranes, and for interaction with a pharmacological/toxicological target. Consequently, the extent of the plasma protein binding (PPB) of a compound influences its action as well as its distribution and elimination.
The determination of plasma protein binding (PPB) of a compound is enabled by equilibrium dialysis, an accepted and standard method for reliable estimation of the non-bound drug fraction in plasma. RED (Rapid Equilibrium Dialysis) device insert is made of two side-by-side chambers separated by an O-ring-sealed vertical cylinder of dialysis membrane (MWCO˜8,000). Plasma containing drug (at 5 μM or blood concentrations otherwise corresponding to efficacious doses, if known) is added to one chamber while buffer is added to the second. After 4 hours incubation at 37° C. under shaking, an aliquot is removed from each chamber and analyzed by a LC-MS/MS procedure enables the determination of both free and bound drug.
The percentages provided in Table 4 represent for the compounds of the invention the bound drug fraction to the plasma protein. The “free fraction” may be calculated as 100%−% rPPB (i.e. the complementary percentage of that disclosed in Table 4, corresponding to the drug concentration that is unbound and therefore available to engage biological target and elicit pharmacological activity).

human NK-1 receptor = human NK-1 receptor (Homo sapiens (Human), UniProt P25103); assay: Selectivity binding assay, human NK-1 ([3H] substance P); conditions: CHO cell membranes; 2 nM [3H] substance P; read-out: hNK-1 (Ki)
Chain of human NK-1 receptor (P25103 whole entry): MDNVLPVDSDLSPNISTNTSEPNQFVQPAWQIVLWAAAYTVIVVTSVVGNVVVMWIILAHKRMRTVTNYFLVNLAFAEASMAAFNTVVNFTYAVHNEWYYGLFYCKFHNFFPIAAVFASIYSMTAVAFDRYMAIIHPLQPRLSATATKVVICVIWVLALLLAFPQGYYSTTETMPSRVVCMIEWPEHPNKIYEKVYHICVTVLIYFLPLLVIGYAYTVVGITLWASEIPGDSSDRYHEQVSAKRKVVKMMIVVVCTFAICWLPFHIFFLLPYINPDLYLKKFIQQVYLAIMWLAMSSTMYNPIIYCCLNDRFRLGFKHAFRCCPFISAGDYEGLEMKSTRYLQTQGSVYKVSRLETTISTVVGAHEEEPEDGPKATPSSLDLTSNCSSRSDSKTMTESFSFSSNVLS
Procedure: as §1
The affinity of compounds of the invention for the NK-1 receptor was evaluated in CHO recombinant cells which express the human NK-1 receptor. Membrane suspensions were prepared from these cells. The following radioligand: [^3H] substance P (PerkinElmer Cat#NET111520) was used in this assay. Binding assays were performed in a 50 mM Tris/5 mM MnCl2/150 mM NaCl/0.1% BSA at pH 7.4. Binding assays consisted of 25 μl of membrane suspension (approximately 5 μg of protein/well in a 96 well plate), 50 μl of compound or reference ligand (Substance P) at increasing concentrations (diluted in assay buffer) and 2 nM [^3H] substance P. The plate was incubated 60 min at 25° C. in a water bath and then filtered over GF/C filters (Perkin Elmer, 6005174, presoaked in 0.5% PEI for 2 h at room temperature) with a Filtration unit (Perkin Elmer). The radioactivity retained on the filters was measured by using the TopCount-NXT reader (Packard). Competition curves were obtained for compounds of the invention and the concentrations of compounds which displaced 50% of bound radioligand (IC50) were determined and then apparent inhibition constant Ki values were calculated by the following equation: Ki=IC50/(1+[L]/KD) where [L] is the concentration of free radioligand and KD is its dissociation constant at the receptor, derived from saturation binding experiments (Cheng and Prusoff, 1973).

human NK-3 receptor [2] = target: T1, human NK-3 receptor; assay: 3H-SB222200 binding competition assay with human NK-3 receptor
Procedure: The affinity of compounds of the invention for the human NK-3 receptor was determined by measuring the ability of compounds of the invention to competitively and reversibly displace a well-characterized NK-3 radioligand in a concentration-dependent manner.
^3H-SB222200 Binding Competition Assay with Human NK-3 Receptor
The ability of compounds of the invention to inhibit the binding of the NK-3 receptor selective antagonist ^3H-SB222200 was assessed by an in vitro radioligand binding assay. Membranes were prepared from Chinese hamster ovary recombinant cells stably expressing the human NK-3 receptor. The membranes were incubated with 5 nM ^3H-SB222200 (ARC) in a HEPES 25 mM/NaCl 0.1M/CaCl2 1 mM/MgCl2 5 mM/BSA 0.5%/Saponin 10 μg/ml buffer at pH 7.4 and various concentrations of compounds of the invention. The amount of ^3H-SB222200 bound to the receptor was determined after filtration by the quantification of membrane associated radioactivity using the TopCount-NXT reader (Packard).

[3] = CHO cell membranes, 5 nM 3H-SB222200, Table 2, read-out: Competitive binding assay with human NK-3 receptor hNK-3 (Ki)
[4] = Table 3 (selectivity table), read-out: hNK-3 (Ki)

Ki (human NK-2 receptor) [nM] | IC50 (human NK-3 receptor [1]) [nM] | Exposure (% rPPB), bound drug fraction to the plasma protein (plasma protein) [%] | Ki (human NK-1 receptor) [nM] | Ki (human NK-3 receptor [2]; [3]) [nM] | Ki (human NK-3 receptor [2]; [4]) [nM] | SMILES
> 30000 | 99 | 37 | > 30000 | 74 | 74 | Cc1ccc(-c2nnc3n2CCN(C(=O)c2ccc(F)c(F)c2F)[C@@H]3C)o1 [Compound 6, (R)-(8-methyl-3-(5-methylfuran-2-yl)-5,6-dihydro-[1,2,4]triazolo[4,3-a]pyrazin-7(8H)-yl)(2,3,4-trifluorophenyl)methanone]
31000 | 52 | 27 | > 30000 | 42 | 42 | Cc1ccc(-c2nnc3n2CCN(C(=O)c2ccc(F)c(F)c2)[C@@H]3C)o1 [Compound 5, (R)-(3,4-difluorophenyl)(8-methyl-3-(5-methylfuran-2-yl)-5,6-dihydro-[1,2,4]triazolo[4,3-a]pyrazin-7(8H)-yl)methanone]
4700 | 33 | 67 | 19000 | 29 | 29 | C[C@@H]1c2nnc(-c3csc(C(F)(F)F)n3)n2CCN1C(=O)c1cc(F)c(F)c(F)c1F [Compound 12, (R)-(8-methyl-3-(2-(trifluoromethyl)thiazol-4-yl)-5,6-dihydro-[1,2,4]triazolo[4,3-a]pyrazin-7(8H)-yl)(2,3,4,5-tetrafluorophenyl)methanone]
21000 | 57 | 26 | 27000 | 33 | 33 | Cc1ccc(-c2nnc3n2CCN(C(=O)c2cc(F)c(F)c(F)c2)[C@@H]3C)o1 [Compound 7, (R)-(8-methyl-3-(5-methylfuran-2-yl)-5,6-dihydro-[1,2,4]triazolo[4,3-a]pyrazin-7(8H)-yl)(3,4,5-trifluorophenyl)methanone]
9100 | 62 | 47 | 18000 | 44 | 44 | Cc1ccc(-c2nnc3n2CCN(C(=O)c2ccc(F)c(Cl)c2)[C@@H]3C)o1 [Compound 8, (R)-(3-chloro-4-fluorophenyl)(8-methyl-3-(5-methylfuran-2-yl)-5,6-dihydro-[1,2,4]triazolo[4,3-a]pyrazin-7(8H)-yl)methanone]
